One data set has as its system M14 cell line (Melanoma). Nature of the data set: Cell viability assay (CellTiter-Glo), M14. Particulars: Homo sapiens; M14, 72 hours; read-out: IC50 Cell-based assay (M14). As to the method:
(§1) The CellTiter-Glo® assay was purchased from Promega. All the reagents and plates for cell culture were purchased Invitrogen Life Technology and Nunc, respectively.
(§2) To investigate whether a compound is able to inhibit the activity of MEK in cells, a mechanism-based assay using COLO205 cell line (Colon cancer) and M14 cell line (Melanoma) were developed. COLO205 cells and M14 cells were cultured in a tissue culture flask to 80% confluence in RPMI1640 plus 10% fetal bovine serum. Cells were collected and plated onto 96 well culture plates at 2×10^2 cells/well. Plates were incubated overnight at 37° C. in a 5% CO2 incubator to allow cells to adhere. Various concentrations of MEK inhibitors were added to the plates and incubated at 37° C. for 72 hours. After 72 hours, 20 μl of CellTiter-Glo® reagent was added to each well. Mix by orbital shaking for 2 min, then incubates at room temperature for 15 min. Cell lysate were transferred into a 96 well white plate (Thermo). Plates were read out by EnVision Multilabel Plate Reader. The data were analyzed using GraphPad Prism5.
On the technique in general: In ATP-based viability assays light output follows the ATP content of the culture.

Another data set addresses Mek1 (Homo sapiens (Human), UniProt Q02750). Put plainly: Mek1 kinase assay (LANCE). It is filed as biochemical. Particulars: Mek1 0.5 nM, 50 μM ATP, 90 min at 23° C.; read-out: IC50 Enzymatic assay. The text has this:
The LANCE Ultra assay kit was purchased from PerkinElmer. The ULight™-MBP peptide, Europium labeled Antibody and LANCE Detection buffer were purchased from PerkinElmer. The APT and dimethylsulfoxide were purchased from Sigma-Aldrich. The 5× Kinase buffer were purchased from Invitrogen.
A Mek1 kinase assay (LANCE, PerkinElmer) was developed for supporting compound profiling and lead optimization. […] Then the phosphorylated Erk1 was able to phosphorylate ULight™-MBP peptide (PerkinElmer). The phosphorylated peptide was detected by Europium-anti-phospho-MBP (PerkinElmer). […] After quenching the reaction with […], 2 nM Europium-anti-phospho-MBP was added to the reaction mixture and incubated for 60 min, followed by a detection using EnVision Multilabel Plate Reader (PerkinElmer). The IC50 values were derived through a curve fitting using GraphPad Prism5.

The subject of data set [1] is COLO205 cell line (Colon cancer). Put plainly: Cell viability assay (CellTiter-Glo), COLO205. Particulars: Homo sapiens, COLO 205; COLO205, 72 hours; read-out: IC50 Cell-based assay (COLO205). The method, then:
as §1, §2

The nature of data set [2]: Example 3 toxicity study by oral administration for 8 days. Format: in vivo, Sprague-Dawley rats. The note with it: for Body weight: escalating 5-320 mg/kg over 8 days. As to the method: To evaluate the potential toxicity, test article, Example 3, was administered orally for 8 days to Sprague-Dawley rats.
Male and female Sprague-Dawley rats, 6 weeks of age at onset of the study, were assigned to 2 experimental groups as follow: (1) 2 male rats treated 5, 5, 10, 20, 40, 80, 160, 320 mg/kg each day with doses escalating for 8 days (2) 2 female rats treated 5, 5, 10, 20, 40, 80, 160, 320 mg/kg each day with doses escalating for 8 days. Each article was in vehicle (Captisol).
Body weight was measured on a daily basis to determine toxicity. All groups were sacrificed at 9th day.

Each structure is given as a SMILES string.

Chain of Mek1 (Q02750 whole entry, species assumed): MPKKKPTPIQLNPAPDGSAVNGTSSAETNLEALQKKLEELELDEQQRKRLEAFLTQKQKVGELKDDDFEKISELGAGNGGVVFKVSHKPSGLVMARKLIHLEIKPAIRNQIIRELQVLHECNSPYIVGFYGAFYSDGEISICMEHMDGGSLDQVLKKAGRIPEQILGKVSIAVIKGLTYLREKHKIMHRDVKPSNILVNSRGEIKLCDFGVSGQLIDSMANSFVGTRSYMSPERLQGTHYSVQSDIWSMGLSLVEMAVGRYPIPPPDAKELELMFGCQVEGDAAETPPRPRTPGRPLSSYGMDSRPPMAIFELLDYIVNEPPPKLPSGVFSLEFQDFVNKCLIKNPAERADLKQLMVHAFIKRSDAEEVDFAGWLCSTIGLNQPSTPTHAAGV

Broadly, the IC50 is the concentration needed to halve the response being measured. Consider `Cn1c(Nc2ccc(I)cc2F)c(-c2nnc(N)o2)c2c(c1=O)CCC2` [Example 9, 4-(5-amino-1,3,4-oxadiazol-2-yl)-3-(2-fluoro-4-iodophenylamino)-2-methyl-2,5,6,7-tetrahydro-1H-cyclopenta[c]pyridin-1-one], for which the IC50 was below 1000 nM with M14 cell line (Melanoma), below 5000 nM on Mek1 and below 50 nM in data set [1].
Regarding `Cn1c(Nc2ccc(I)cc2F)c(C(=O)NOCC(C)(C)O)c2c(c1=O)CCC2` [Example 7, 3-(2-fluoro-4-iodophenylamino)-N-(2-hydroxy-2-methylpropoxy)-2-methyl-1-oxo-2,5,6,7-tetrahydro-1H-cyclopenta[c]pyridine-4-carboxamide], the IC50 in the data set with M14 cell line (Melanoma) was below 500 nM; at Mek1 it was below 5000 nM; in data set [1], below 5 nM.
The like results for `Cn1c(Nc2ccc(I)cc2Cl)c(C(=O)NOCCO)c2c(c1=O)CCC2` [Example 11, 3-(2-chloro-4-iodophenylamino)-N-(2-hydroxyethoxy)-2-methyl-1-oxo-2,5,6,7-tetra hydro-1H-cyclopenta[c]pyridine-4-carboxamide] were, in that order, below 50 nM, below 500 nM and below 5 nM.
The like results for `Cn1c(Nc2ccc(I)cc2F)c(-c2nnc(N)o2)c2ncccc2c1=O` [Example 2, 8-(5-amino-1,3,4-oxadiazol-2-yl)-7-(2-fluoro-4-iodophenylamino)-6-methyl-1,6-naphthyridin-5(6H)-one] were, in that order, below 50000 nM, below 10000 nM and below 50000 nM.
The like results for `Cn1c(Nc2ccc(I)cc2F)c(C(=O)NOCCO)c2ncccc2c1=O` [Example 1, 7-(2-fluoro-4-iodophenylamino)-N-(2-hydroxyethoxy)-6-methyl-5-oxo-5,6-dihydro-1,6-naphthyridine-8-carboxamide] were, in that order, below 500 nM, below 1000 nM and below 500 nM.
As for `Cn1c(Nc2ccc(I)cc2F)c(C(N)=O)c2c(c1=O)CCC2` [Example 4, 3-(2-fluoro-4-iodophenylamino)-2-methyl-1-oxo-2,5,6,7-tetrahydro-1H-cyclopenta[c]pyridine-4-carboxamide], the concentration for half-maximal inhibition (IC50) was below 500 nM in the data set on M14 cell line (Melanoma), below 5000 nM on Mek1 and below 50 nM in data set [1].
Turning to `Cn1c(Nc2ccc(I)cc2F)c(C(=O)NOCCO)c2c(c1=O)CCC2` [Example 3, 3-(2-fluoro-4-iodophenylamino)-N-(2-hydroxyethoxy)-2-methyl-1-oxo-2,5,6,7-tetrahydro-1H-cyclopenta[c]pyridine-4-carboxamide], the figures for the half-maximal inhibitory concentration (IC50) (in the data set with M14 cell line (Melanoma); at Mek1; in data set [1]) were below 10 nM, below 500 nM and below 5 nM, respectively. In addition, the Body weight result in data set [2] (female rats) was “decreased after 6 days”; in data set [2] (male rats), “decreased at day 6 and day 8”. Also, the Mortality result in data set [2] (male and female rats, escalating 5, 5, 10, 20, 40, 80, 160, 320 mg/kg over 8 days) was “No mortality was observed”.
As to `Cn1c(Nc2ccc(I)cc2F)c(C(=O)NOCCO)c2c(c1=O)CC(C)(C)C2` [Example 10, 3-(2-fluoro-4-iodophenylamino)-N-(2-hydroxyethoxy)-2,6,6-trimethyl-1-oxo-2,5,6,7-tetrahydro-1H-cyclopenta[c]pyridine-4-carboxamide], the IC50 in the data set with M14 cell line (Melanoma) is below 100 nM; in data set [1], below 50 nM.
With `C[C@@H](O)CONC(=O)c1c2c(c(=O)n(C)c1Nc1ccc(I)cc1F)CCC2` [Example 6, (R)-3-(2-fluoro-4-iodophenylamino)-N-(2-hydroxypropoxy)-2-methyl-1-oxo-2,5,6,7-tetrahydro-1H-cyclopenta[c]pyridine-4-carboxamide], the IC50 in the data set on M14 cell line (Melanoma) was below 100 nM; on Mek1, below 1000 nM; in data set [1], below 10 nM.
The like results for `C[C@H](O)CONC(=O)c1c2c(c(=O)n(C)c1Nc1ccc(I)cc1F)CCC2` [Example 5, (S)-3-(2-fluoro-4-iodophenylamino)-N-(2-hydroxypropoxy)-2-methyl-1-oxo-2,5,6,7-tetrahydro-1H-cyclopenta[c]pyridine-4-carboxamide] were, in that order, below 50 nM, below 500 nM and below 5 nM.
The like results for `Cn1c(Nc2ccc(I)cc2F)c(C(=O)NOCC(O)CO)c2c(c1=O)CCC2` (centres unmarked) [Example 8, N-(2,3-dihydroxypropoxy)-3-(2-fluoro-4-iodophenylamino)-2-methyl-1-oxo-2,5,6,7-tetrahydro-1H-cyclopenta[c]pyridine-4-carboxamide] were, in that order, below 50 nM, below 500 nM and below 5 nM.

These data come from patent US9617261B2, “Substituted pyridinone compounds as MEK inhibitors” (The Asan Foundation, priority 2013, dated 2017).
